Measured values taken from PMC12352619, “Phylogeny-guided discovery of a promiscuous P450 macrocyclase for the production of diverse atropopeptides” (Chemical Science, 2025).

Tests used:
[1] = tested on: ICAM1; type: cell-based, mouse; details: b.End.3 cells, 1 µg/ml LPS, peptide 1 µg/ml added 8 hours after stimulation, for 60 h, flow cytometry, n = 6 technical replicates
[2] = tested on: VCAM1; type: cell-based, mouse; details: b.End.3 cells, 1 µg/ml LPS, peptide 1 µg/ml added 8 hours after stimulation, for 60 h, flow cytometry, n = 6 technical replicates
[3] = tested on: A/Hamburg/05/2009 (H1N1pdm); test: Screening of antiviral activity in MDCK II cells, H1N1pdm; type: cell-based, influenza virus; details: for antiviral effect: MOI 0.001, 48 h, CellTiter-Glo, normalized to aprotinin = 100%; for antiviral efficacy compared among the tested atropopeptides: statement made for the four strains together
[4] = tested on: A/Hessen/1/2003 (H3N2); test: Screening of antiviral activity in MDCK II cells, H3N2; type: cell-based, influenza virus; details: for antiviral effect: MOI 0.001, 48 h, CellTiter-Glo, normalized to aprotinin = 100%; for antiviral efficacy compared among the tested atropopeptides: statement made for the four strains together
[5] = tested on: B/Malaysia/2506/2004 (Malaysia/B); test: Screening of antiviral activity in MDCK II cells, Malaysia/B; type: cell-based, influenza virus; details: for antiviral effect: MOI 0.001, 48 h, CellTiter-Glo, normalized to aprotinin = 100%; for antiviral efficacy compared among the tested atropopeptides: statement made for the four strains together
[6] = tested on: B/Massachusetts/71 (Massachusetts/B); test: Screening of antiviral activity in MDCK II cells, Massachusetts/B; type: cell-based, influenza virus; details: for antiviral effect: MOI 0.001, 48 h, CellTiter-Glo, normalized to aprotinin = 100%; for antiviral efficacy compared among the tested atropopeptides: statement made for the four strains together
[7] = tested on: MDCK II cells; details: 100 µM, 48 h, CellTiter-Glo

Row | Substance | ICAM1 expression (mean fluorescence intensity) [1] | VCAM1 expression (mean fluorescence intensity) [2] | antiviral effect [3] | antiviral efficacy compared among the tested atropopeptides [3] | antiviral effect [4] | antiviral efficacy compared among the tested atropopeptides [4] | antiviral effect [5] | antiviral efficacy compared among the tested atropopeptides [5] | antiviral effect [6] | antiviral efficacy compared among the tested atropopeptides [6] | cytotoxicity toward MDCK II cells (cell viability, ATP) [7]
1 | H-WYIW-OH (also: sidechain bridge or staple (positions not given here)) [compound 1, scabrirubin CB-1, cyclic tetrapeptide from S. albus/pUWL-LauA + ScaB, C–N biaryl crosslink between Trp-1 and Trp-4] | slight reduction | unchanged | dose-dependent antiviral effect | comparable antiviral efficacies | dose-dependent antiviral effect | comparable antiviral efficacies | dose-dependent antiviral effect | comparable antiviral efficacies | dose-dependent antiviral effect | comparable antiviral efficacies | did not show cytotoxicity
2 | H-WYQWL-OH (also: sidechain bridge or staple (positions not given here)) [compound 3, scabrirubin CB-3, cyclic pentapeptide from S. albus/pUWL-SvaA + ScaB with C–N biaryl crosslink] | significantly reduced | significantly reduced | dose-dependent antiviral effect | slightly reduced activity | dose-dependent antiviral effect | slightly reduced activity | dose-dependent antiviral effect | slightly reduced activity | dose-dependent antiviral effect | slightly reduced activity | did not show cytotoxicity
3 | scabrirubin [reference compound] | slight reduction | slightly elevated | dose-dependent antiviral effect | comparable antiviral efficacies | dose-dependent antiviral effect | comparable antiviral efficacies | dose-dependent antiviral effect | comparable antiviral efficacies | dose-dependent antiviral effect | comparable antiviral efficacies | did not show cytotoxicity
